# Laboratory results: US9993534B2, “Method of treating fungal infection” (Wisconsin Alumni Research Foundation, priority 2013, dated 2018)
# System: 1807 cells
# Type: cell-based, mouse
# Settings: Calnexin peptide #1, 13 amino acid sequence of the named species
sequence,measurement,value
LVLKSRAKHHAIS [Homo sapiens (Calmegin)],1807 reactive,not reactive with the 1807 cells
